For experiment [1], the system named is highly pathogenic strain Ia/duck/MN/1525/81 (H5N1). The experiment is described as follows: microbe, parasite or virus in culture. The class given is cell-based, influenza virus Ia/duck/MN/1525/81 (H5N1) in MDCK cells. Particulars: for IC50: Influenza A virus, H5N1, MDCK.
Experiment [2] has as its target neuraminidase of influenza virus A/California/07/09 (H1N1) (Influenza A virus, UniProt C3W6G3). The class given is biochemical. Particulars: read-out: IC50, nM (number of experiments).
The target of experiment [3] is neuraminidase of influenza virus A/Aichi/2/69 (H3N2) (Influenza A virus, UniProt Q75VQ4). The class given is biochemical. Particulars: read-out: IC50, nM (number of experiments).
For experiment [4], the target named is neuraminidase of influenza virus B/Brisbane/60/2008 (Influenza B virus, UniProt C0LT34). The class given is biochemical. The settings on record: read-out: IC50, nM (number of experiments).
Experiment [5] deals with neuraminidase of influenza virus B/Pert/211/2001 (197D) (Influenza B virus, UniProt Q3S340). The class given is biochemical. Particulars: read-out: IC50, nM (number of experiments).
The subject of experiment [6] is virus strain Ia/California/07/09 (H1N1). Kind of experiment: microbe, parasite or virus in culture. Particulars: for IC50: Influenza A virus, H1N1, MDCK. The class given is cell-based, influenza virus Ia/California/07/09 (H1N1) in MDCK cells.
In experiment [7] the target is neuraminidase of influenza virus A/California/04/09 (Influenza A virus, UniProt C3W5S3). The class given is biochemical. The settings on record: for IC50: read-out: neuraminidase activity IC50.
For experiment [8], the system named is influenza virus A/Aichi/2/69 (H3N2). On the set-up: species or system mice. Particulars: mouse, in vivo; for efficiency of treating influenza pneumonia in mice: po, 25 mg/kg/day.

Data on eleven compounds can be found in patent publication US8895613B2 (priority 2013, dated 2014).

As a reminder, the IC50 is the concentration needed to halve the response being measured.

Some results are limits rather than exact numbers.

As for `CCC(CC)O[C@@H]1C=C(C(=O)O)C[C@H](NC(=N)N)[C@H]1NC(=O)CF` [1.1, (3R,4R,5S)-5-guanidino-4-fluoroacetamido-3-(pentan-3-yloxy)cyclohex-1-enecarboxylic acid], the “activity higher than that of Oseltamivir carboxylate, times” value in experiment [1] came out at 24. Further, in experiment [1], the “activity higher than that of Zanamivir (Zan), times” value was found to be 16. Further, the IC50 came out at 3200 nM in experiment [1]; 0.18 nM in experiment [2]; 0.69 nM in experiment [3]; 1.27 nM in experiment [4]; 2.08 nM in experiment [5]; 780 nM in experiment [6]. Besides, the “more active than Oseltamivir carboxylate (A2) by factor” value in experiment [6] is given as 13. Moreover, in experiment [6], the “more active than Zanamivir (Zan) by factor” value was determined as 20. The “times more active than A2” value in experiment [7] was 4. Also, the “times more active than A4” value in experiment [7] was determined as 400.
In the case of `CCOC(=O)C1=C[C@@H](OC(CC)CC)[C@H](NC(=O)CF)[C@@H](NC(=N)N)C1` [1.3, ethyl (3R,4R,5S)-5-guanidino-4-fluoroacetamido-3-(pentan-3-yloxy)cyclohex-1-enecarboxylate], the “efficiency of treating influenza pneumonia in mice” value in experiment [8] is listed as “high efficiency”.
`CCC(CC)O[C@@H]1C=C(C(=O)O)C[C@H](NC(=N)N)[C@H]1NC(=O)C(F)F` [1.4, (3R,4R,5S)-5-guanidino-4-difluoroacetamido-3-(pentan-3-yloxy)cyclohex-1-enecarboxylic acid]: in experiment [7], the “times more active than A2” value worked out at 2.7 and the “times more active than A4” value is reported as 267.
Consider `CCOC(=O)C1=C[C@@H](OC(CC)CC)[C@H](NC(=O)C(F)F)[C@@H](NC(=N)N)C1` [1.6, ethyl (3R,4R,5S)-5-guanidino-4-difluoroacetamido-3-(pentan-3-yloxy)cyclohex-1-enecarboxylate], for which the “efficiency of treating influenza pneumonia in mice” value in experiment [8] is reported as “high efficiency”.
Regarding `CCC(CC)O[C@@H]1C=C(C(=O)OC2CCCCC2)C[C@H](NC(=N)N)[C@H]1NC(=O)C(F)F` [1.9, 2-cyclohexyl (3R,4R,5S)-5-guanidino-4-(2,2-difluoroacetamido)-3-(pentan-3-yloxy)cyclohex-1-enecarboxylate], the IC50 in experiment [7] was under 1 nM.
As to `CCC(CC)O[C@@H]1C=C(C(=O)OCCc2ccccc2)C[C@H](NC(=N)N)[C@H]1NC(=O)C(F)F` [1.10, 2-phenylethyl (3R,4R,5S)-5-guanidino-4-(2,2-difluoroacetamido)-3-(pentan-3-yloxy)cyclohex-1-enecarboxylate], the IC50 in experiment [7] is under 1 nM.
Consider `CCC(CC)O[C@@H]1C=C(C(=O)OCCc2cccnc2)C[C@H](NC(=N)N)[C@H]1NC(=O)C(F)F` [1.11, 2-pyridin-3-ylethyl (3R,4R,5S)-5-guanidino-4-(2,2-difluoroacetamido)-3-(pentan-3-yloxy)cyclohex-1-enecarboxylate], for which, in experiment [7], the half-inhibitory concentration (IC50) is under 1 nM.
On the same count and under the same terms, to `CCC(CC)O[C@@H]1C=C(C(=O)OCCOC)C[C@H](NC(=N)N)[C@H]1NC(=O)C(F)F` [1.12, 2-methoxyethyl (3R,4R,5S)-5-guanidino-4-(2,2-difluoroacetamido)-3-(pentan-3-yloxy)cyclohex-1-enecarboxylate] belongs under 1 nM.
`CCC(CC)O[C@@H]1C=C(C(=O)O)C[C@H](N)[C@H]1NC(C)=O` [A2, (3R,4R,5S)-5-amino-4-acetamido-3-(pentan-3-yloxy)cyclohex-1-enecarboxylic acid, reference compound]: the IC50 came out at 77500 nM in experiment [1] and 9900 nM in experiment [6].
Turning to `CCOC(=O)C1=C[C@@H](OC(CC)CC)[C@H](NC(C)=O)[C@@H](N)C1` [Tamiflu, reference compound], in experiment [8], the “death of treated animals by the time the last animal of virus control group died” value is recorded as “prevented completely” and the “weight loss of treated animals” value is given as “did not lose weight”.
Regarding `CC(=O)NC1C(NC(=N)N)C=C(C(=O)O)OC1C(O)C(O)CO` [Zan, 5-Acetamido-2,3-didehydro-3,4,5-trideoxy-4-guanidino-alpha-D-glycero-D-galacto-2-nonulopyranosonic acid, reference compound], the IC50 in experiment [1] stood at 51200 nM; in experiment [6] it was 16000 nM.
